Laboratory results as given in PubChem BioAssay (NCI).
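Growth conditions: 96-well plates. Treatment: test compound, 48 hours, 5 concentrations. Analysis: linear interpolation between bracketing concentrations; unreached endpoints set to highest concentration. GI50: concentration for 50% inhibition of growth. TGI is the concentration that stops growth completely.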

Tests used:
Test in all cases: NCI tumour cell line growth inhibition, 48 h
[1] = test system: OVCAR-5 ovarian
[2] = test system: HCC-2998 colon
[3] = test system: SK-MEL-28 melanoma
[4] = test system: TK-10 renal
[5] = test system: HCT-15 colon
[6] = test system: SF-295 CNS
[7] = test system: SK-OV-3 ovarian
[8] = test system: IGROV1 ovarian
[9] = test system: NCI-H522 lung
[10] = test system: HL-60(TB) leukemia
[11] = test system: OVCAR-4 ovarian
[12] = test system: EKVX NSCLC
[13] = test system: SNB-19 CNS
[14] = test system: A498 renal
[15] = test system: NCI-H460 lung
[16] = test system: SF-268 CNS
[17] = test system: M14 melanoma
[18] = test system: HOP-92 NSCLC
[19] = test system: OVCAR-8 ovarian
[20] = test system: SK-MEL-2 melanoma
[21] = test system: SN12C renal
[22] = test system: RPMI-8226 leukemia
[23] = test system: SW-620 colon
[24] = test system: PC-3 prostate
[25] = test system: ACHN renal
[26] = test system: UO-31 renal
[27] = test system: NCI-H23 lung
[28] = test system: SNB-75 CNS
[29] = test system: T-47D breast
[30] = test system: HT29 colon
[31] = test system: MDA-MB-435
[32] = test system: HOP-62 NSCLC
[33] = test system: SF-539 CNS
[34] = test system: LOX IMVI melanoma
[35] = test system: NCI/ADR-RES ovarian
[36] = test system: A549 NSCLC
[37] = test system: K-562 leukemia
[38] = test system: MDA-MB-231 breast
[39] = test system: CCRF-CEM leukemia
[40] = test system: 786-0 renal
[41] = test system: SR leukemia
[42] = test system: HS 578T breast
[43] = test system: MOLT-4 leukemia
[44] = test system: SK-MEL-5 melanoma
[45] = test system: NCI-H226 lung
[46] = test system: KM12 colon
[47] = test system: RXF 393 renal
[48] = test system: U251 CNS
[49] = test system: MCF7 breast
[50] = test system: UACC-62 melanoma
[51] = test system: DU-145 prostate
[52] = test system: BT-549 breast
[53] = test system: COLO 205 colon
[54] = test system: MALME-3M melanoma
[55] = test system: HCT-116 colon
[56] = test system: CAKI-1 renal

Structure (SMILES): Oc1ccc(-c2nnc(SCc3ccc(O)c4ncccc34)n2-c2ccccc2)cc1
- GI50 [1]: 1320 nM
- TGI [1]: > 100000 nM
- GI50 [2]: 620 nM
- TGI [2]: > 63400 nM
- GI50 [3]: 621 nM
- TGI [3]: > 100000 nM
- GI50 [4]: 502 nM
- TGI [4]: > 100000 nM
- GI50 [5]: 164 nM
- TGI [5]: > 100000 nM
- GI50 [6]: 387 nM
- TGI [6]: > 100000 nM
- GI50 [7]: 496 nM
- TGI [7]: > 25900 nM
- GI50 [8]: 471 nM
- TGI [8]: > 88300 nM
- GI50 [9]: 330 nM
- TGI [9]: 2850 nM
- GI50 [10]: 292 nM
- TGI [10]: 2730 nM
- GI50 [11]: 566 nM
- TGI [11]: > 100000 nM
- GI50 [12]: 596 nM
- TGI [12]: > 100000 nM
- GI50 [13]: 385 nM
- TGI [13]: > 100000 nM
- GI50 [14]: 570 nM
- TGI [14]: 5840 nM
- GI50 [15]: 152 nM
- TGI [15]: 6280 nM
- GI50 [16]: 465 nM
- TGI [16]: > 100000 nM
- GI50 [17]: 284 nM
- TGI [17]: 1570 nM
- GI50 [18]: 28.9 nM
- TGI [18]: 845 nM
- GI50 [19]: 233 nM
- TGI [19]: > 100000 nM
- GI50 [20]: 828 nM
- TGI [20]: > 36900 nM
- GI50 [21]: 348 nM
- TGI [21]: > 100000 nM
- GI50 [22]: 391 nM
- TGI [22]: > 100000 nM
- GI50 [23]: 397 nM
- TGI [23]: > 100000 nM
- GI50 [24]: 433 nM
- TGI [24]: > 100000 nM
- GI50 [25]: 365 nM
- TGI [25]: > 100000 nM
- GI50 [26]: 261 nM
- TGI [26]: 4260 nM
- GI50 [27]: 482 nM
- TGI [27]: > 100000 nM
- GI50 [28]: 1500 nM
- TGI [28]: > 81000 nM
- GI50 [29]: 600 nM
- TGI [29]: > 100000 nM
- GI50 [30]: 3850 nM
- TGI [30]: > 100000 nM
- GI50 [31]: 380 nM
- TGI [31]: > 100000 nM
- GI50 [32]: 521 nM
- TGI [32]: > 100000 nM
- GI50 [33]: 528 nM
- TGI [33]: > 44300 nM
- GI50 [34]: 377 nM
- TGI [34]: 6930 nM
- GI50 [35]: 207 nM
- GI50 [36]: 614 nM
- TGI [36]: > 100000 nM
- GI50 [37]: 290 nM
- TGI [37]: > 100000 nM
- GI50 [38]: 458 nM
- TGI [38]: > 100000 nM
- GI50 [39]: 327 nM
- TGI [39]: > 100000 nM
- GI50 [40]: 770 nM
- TGI [40]: 11100 nM
- GI50 [41]: 325 nM
- TGI [41]: > 100000 nM
- GI50 [42]: 533 nM
- TGI [42]: > 100000 nM
- GI50 [43]: 394 nM
- TGI [43]: > 100000 nM
- GI50 [44]: 371 nM
- TGI [44]: 1840 nM
- GI50 [45]: 718 nM
- TGI [45]: > 85800 nM
- GI50 [46]: 372 nM
- TGI [46]: > 100000 nM
- GI50 [47]: 881 nM
- TGI [47]: > 100000 nM
- GI50 [48]: 194 nM
- TGI [48]: > 100000 nM
- GI50 [49]: 140 nM
- TGI [49]: > 100000 nM
- GI50 [50]: 462 nM
- TGI [50]: 3980 nM
- GI50 [51]: 438 nM
- TGI [51]: > 100000 nM
- GI50 [52]: 606 nM
- TGI [52]: > 25800 nM
- GI50 [53]: 3020 nM
- TGI [53]: > 100000 nM
- GI50 [54]: 902 nM
- TGI [54]: > 29100 nM
- GI50 [55]: 158 nM
- TGI [55]: > 100000 nM
- GI50 [56]: 448 nM
- TGI [56]: > 100000 nM
